Reference: article PMC5114727, “Biological characterization of chemically diverse compounds targeting the Plasmodium falciparum coenzyme A synthesis pathway” (Parasites & Vectors, 2016)
Values joined by “and” are separate entries in the source; they are usually repeats but may differ in a detail not shown here. Identical values can stand only once. Like-named read-outs stand apart in the source and are kept apart here.

Columns and labels:
[1] = system: P. falciparum early stage gametocytes (PfEG, stage I-III); experiment: Chemical rescue with CoA pathway intermediates, early stage gametocytes; type: cell-based, Plasmodium falciparum; details: for Percent rescue ± SEM by CoA, PfEG: CoA 1.6 mM; for Percent rescue ± SEM by CoA, PfEG / Percent rescue ± SEM by pantethine, PfEG / Percent rescue ± SEM by pantothenate, PfEG: inhibitor at IC80; for Percent rescue ± SEM by pantethine, PfEG: pantethine 10 mM; for Percent rescue ± SEM by pantothenate, PfEG: pantothenate 625 μM
Experimental: (§1) Pantothenate is the first substrate of the pathway (Fig. 1) and its addition was intended to rescue the action of possible competitive inhibitors of the first enzyme, PanK. […] It is not known, whether P. falciparum is capable of pantetheine phosphorylation for utilization in CoA synthesis. […] Finally, the rescue ability of dP-CoA, the final substrate of CoA synthesis, was tested. […] Inhibitors competing with dP-CoA for DPCK binding were expected to be displaced, thereby rescuing parasite survival, by dP-CoA supplementation in a concentration dependent manner.
An imaging based assay was utilised to assess the chemical rescue on asexual stages of P. falciparum as described previously. All the pathway intermediates were purchased from Sigma. CoA and dP-CoA were dissolved in sterile distilled water to obtain a 20 mM stock solution, which was then aliquoted and stored at -20 °C until use. […] Each pathway intermediate was tested on the parasites at a range of concentrations to assess potential toxicity. […] On early stage P. falciparum gametocytes the same concentrations as for CoA were tested for dP-CoA; against asexual blood stage P. falciparum, late stage gametocytes and Trypanosoma b. brucei five dP-CoA concentrations were tested (2 mM, 1.5 mM, 1 mM, 0.75 mM and 0.5 mM).
(§2) The same concentration ranges of the CoA pathway intermediates were supplemented to parasites treated with the experimental compounds. […] The negative control used in each assay was 0.4% DMSO, whilst the positive control was 2 μM artemisinin for asexual P. falciparum blood stages and 5 μM puromycin for all gametocyte stages and T. b. brucei. The percentage growth of the respective parasites following compound treatment was determined using Microsoft ® Excel 2010, and compared with their controls. All rescue assays were performed as two independent experiments each in duplicate point.

[2] = system: 3T3 cells; experiment: 3T3 host cell cytotoxicity (part of T. cruzi amastigote image-based assay); set-up: species or system mouse; details: bound = highest concentration with < 50 % inhibition; read-out: 3T3 cytotoxicity IC50 ± SEM
Text: (§3) An initial indication of compound selectivity over human cells had previously been obtained through comparison of the compounds’ IC50 values against P. falciparum asexual stages and HEK293 [22]. In the present study, the selectivity investigation was extended to a small panel of human cancer cell lines, namely the estrogen receptor (ER)-positive breast cancer cell line MCF7, the ER-negative MDA-MB-231, as well as the human prostate cancer line, PC-3. Additionally, the cytotoxic effects on mouse embryonic fibroblast cell line 3T3, which serves as the host cell for T. cruzi in our image-based amastigote assay, were investigated.
(§4) Cytotoxicity of the compounds was assessed against a panel of human cancer cell lines, namely the estrogen receptor (ER)-positive breast cancer cell line MCF7, the ER-negative MDA-MB-231 and the prostate cancer line PC-3. All the cell lines were purchased from ATCC and maintained as previously described. Two biological replicates consisting of two technical replicates each were performed to generate concentration response curves (CRC) with a final highest concentration of 40 μM. A resazurin-based assay was utilized to determine cell viability as described earlier. Additionally, the cytotoxic effects on the mouse embryonic fibroblast cell line 3T3 were assessed as part of the Trypanosoma cruzi amastigote image-based assay as outlined in [35].

[3] = target: early stage gametocytes (stage I to IIb/III) of P. falciparum line NF54^Pfs16; experiment: Gametocyte luciferase assay, early stage; type: cell-based, Plasmodium falciparum
Text: To investigate a potential role of CoA biosynthesis for host to vector transmission of the malaria parasite, we investigated the activity of our compounds on P. falciparum gametocytes, the sexual stages of P. falciparum, essential for malaria transmission. […] Parasite stage-specificity and gametocytocidal activity of the compounds was therefore investigated, utilizing a luciferase-based approach on early stage (development from stage I to IIb/III [30]) and late stage (IV to V [51]) gametocytes.
Induction of P. falciparum gametocyte differentiation and gametocyte culturing were performed as previously described. Compound activity against early stage gametocytes (covering the development from stage I to IIb/III) and late stage gametocytes (stage IV to V) of the recombinant P. falciparum line NF54^Pfs16 was assessed in concentration-response assays, in two experimental replicates consisting of two technical repeats each, at a highest concentration of 40 μM, as described earlier.

[4] = system: MDA-MB-231 cells; experiment: Resazurin cytotoxicity assay, MDA-MB-231; type: cell-based, human; details: highest concentration 40 μM; bound = highest concentration with < 50 % inhibition; read-out: MDA-MB-231 cytotoxicity IC50 ± SEM
Text: as §3, §4

[5] = system: P. falciparum pantothenate kinase (PfPanK); experiment: Radiometric pantothenate phosphorylation assay in P. falciparum lysate; type: biochemical, Plasmodium falciparum; details: 100 μM single concentration, all compounds (Figure S2a)
Experimental: A radiometric assay, which allows measurement of the phosphorylation of various substrates by kinases present in P. falciparum lysates [16, 39], was used to test the effect of the chemical compounds of interest at 100 μM concentration on PanK activity.
The ability of the test compounds to inhibit P. falciparum pantothenate kinase (PfPanK) was assessed with a radiometric pantothenate phosphorylation assay as described previously [39]. In short, the phosphorylation of [^14C] pantothenate by P. falciparum lysates was measured in the presence or absence of a single concentration (100 μM, two biological replicates in duplicate technical repeats) of each test compound. […] P. falciparum lysate was prepared from trophozoite stage parasites isolated from their host RBC by treatment with 0.05% (w/v) saponin, and washed (three times) in HEPES-buffered saline (125 mM NaCl, 5 mM KCl, 20 mM D-glucose, 25 mM HEPES, 1 mM MgCl2, pH 7.1). Lysates were prepared in 10 mM potassium phosphate, pH 7.4, the concentration of cell lysates was determined from cell counts with an improved Neubauer hemocytometer, and aliquots of lysate were stored at -20 °C.[^14C] pantothenate, [^14C]

[6] = system: HEK293 cells; details: as previously reported; read-out: HEK293 cytotoxicity IC50 ± SEM; cited from earlier work
[7] = system: T. cruzi amastigotes; experiment: T. cruzi amastigote image-based assay in 3T3 host cells; type: cell-based, Trypanosoma cruzi; details: for T. cruzi amastigote percent inhibition at the highest concentration tested: 40 µM per footnote, given if an IC50 could not be calculated; for IC50: in 3T3 host cells, read-out: T. cruzi amastigote IC50 ± SEM
Experimental: The next step taken was to determine whether the activity of the compounds was confined to P. falciparum, or whether it extended to other protozoan parasites. Compound activity against two members of another clinically important group of parasites, the kinetoplastids T. cruzi and T. b. brucei was determined. The sensitive high content imaging assay used to determine compound activity against T. cruzi assesses the intracellular amastigote life form of the parasite in the 3T3 host cell. It is important to simultaneously assess compound activity against 3T3 cells to determine potential cytotoxicity against the host cell line, since this could result in a false positive outcome. The T. b. brucei assay employs the REDOX indicator Alamar Blue to assess viability, which was developed into a 384-well assay format.
Compound activity against T. cruzi amastigotes was assessed in an image-based assay in single point concentration-response and three biological replicates, at a final highest compound concentration of […], as previously described.

[8] = system: T. b. brucei trypomastigotes; experiment: Chemical rescue with CoA pathway intermediates, T. b. brucei; type: cell-based, Trypanosoma brucei brucei; details: inhibitor at IC80; for Percent rescue ± SEM by CoA, Tbb: CoA 1.0 mM; for Percent rescue ± SEM by pantethine, Tbb: pantethine 2.44 μM; for Percent rescue ± SEM by pantothenate, Tbb: pantothenate 1.25 mM
Experimental: as §1
An imaging based assay was utilised to assess the chemical rescue on asexual stages of P. falciparum as described previously. All the pathway intermediates were purchased from Sigma. […]
as §2, with “compounds. The inhibitors were used at their respective final assay concentration of IC80 (as determined previously in the corresponding P. falciparum development stage or T. b. brucei assay).” for “compounds.”

[9] = read-out: Early stage gametocyte IC50
[10] = highest concentration 40 μM, read-out: Early stage gametocyte IC50 ± SEM

Compound: Cc1csc(Sc2ncnc3sccc23)n1 [Amb180780]
- Percent rescue ± SEM by CoA, PfEG [1]: 111.3 ± 3.2% and ~100%
- Percent rescue ± SEM by pantethine, PfEG [1]: 94.2 ± 1.8% and ~100%
- Percent rescue ± SEM by pantothenate, PfEG [1]: No
- IC50 [2]: > 40 µM
- IC50 [3, 9]: 0.06 µM
- IC50 [4]: > 40 µM
- PanK inhibition [5]: did not reveal inhibition of PanK
- IC50 [6]: ~40 µM
- T. cruzi amastigote percent inhibition at the highest concentration tested [7]: 21%

Compound: CC1=CC(=O)C(C(C)C)=C/C1=N/OS(=O)(=O)c1ccccc1 [STK 740987]
- Percent rescue ± SEM by CoA, PfEG [1]: 24.1 ±0.7% and 24 ± 1%
- activity on early stage gametocytes at previously determined IC80 value ([1]; compound alone in rescue experiment): > 95%
- Percent rescue by CoA, PfEG, at the compound's IC50 ([1]; inhibitor at IC50): 61.5 ± 1.0% and 62 ± 1%
- Percent rescue by dephospho CoA, PfEG, at the compound's IC50 ([1]; inhibitor at IC50): 46.2 ± 2.4% and 46 ± 2%
- Rescue by pantethine, PfEG, at the compound's IC50 (in words) ([1]; inhibitor at IC50): unaffected
- Rescue by pantothenate, PfEG, at the compound's IC50 (in words) ([1]; inhibitor at IC50): unaffected
- Percent rescue ± SEM by pantethine, PfEG [1]: No and not rescued by the other intermediates
- Percent rescue ± SEM by pantothenate, PfEG [1]: No and not rescued by the other intermediates
- IC50 [2]: > 20 µM
- IC50 [3, 9]: 0.43 µM
- IC50 [4]: > 40 µM
- IC50 [6]: > 40 µM
- T. cruzi amastigote percent inhibition at the highest concentration tested [7]: 54%
- Percent rescue ± SEM by CoA, Tbb [8]: 69.6 ± 10.6%
- Percent rescue ± SEM by pantethine, Tbb [8]: No
- Percent rescue ± SEM by pantothenate, Tbb [8]: No

Compound: CC(=O)c1ccc2c3c(onc13)-c1ccccc1C2=O [Amb3377585]
- Percent rescue ± SEM by pantethine, PfEG [1]: No
- Percent rescue ± SEM by pantothenate, PfEG [1]: No
- IC50 [3, 10]: 0.25 ± 0.01 µM
- IC50 [4]: 5.6 ± 0.33 µM
- IC50 [6]: 2.75 ± 0.18 µM
- IC50 [7]: 13.3 ± 2.35 µM
- Percent rescue ± SEM by CoA, Tbb [8]: 95.0 ± 4.2%
- Percent rescue ± SEM by dephospho CoA, Tbb ([8]; dP-CoA 1.6 mM): 100.4 ± 1.4%
- Percent rescue ± SEM by pantethine, Tbb [8]: No
- Percent rescue ± SEM by pantothenate, Tbb [8]: 34.2 ± 1.3% and 34 ± 1%

Compound: CC(=O)C1=C(c2ccccc2)C(=O)c2ccccc2C1=O [Amb4317088]
- IC50 [2]: 8.6 ± 0.96 µM
- IC50 [3, 10]: 2.88 ± 0.18 µM
- IC50 [4]: 0.87 ± 0.04 µM
- IC50 [6]: 2.33 ± 0.12 µM
- IC50 [7]: 4.3 ± 0.27 µM
- Percent rescue ± SEM by CoA, Tbb [8]: 85.0 ± 6.9%
- Percent rescue ± SEM by pantethine, Tbb [8]: No
- Percent rescue ± SEM by pantothenate, Tbb [8]: No
